Experimental data: patent US20110217715A1, “GENE EXPRESSION IN DUCHENNE MUSCULAR DYSTROPHY” (CHILDREN'S HOSPITAL MEDICAL CENTER, priority 2008, published 2011)

System: mRNA expression in peripheral blood of individuals with DMD
Experiment: Whole-blood gene expression microarray: DMD administered deflazacort vs DMD administered prednisone
Type: in vivo, human
Protocol: Fifteen ml of blood was collected from each individual into 6 PAXgene® Vacutainer® tubes (PreAnalytiX, Germany) by antecubital fossa venipuncture. PAXgene® tubes contain a proprietary reagent that immediately stabilizes RNA, thus reducing RNA degradation and minimizing gene expression changes following phlebotomy. The tubes were then inverted 20 times, then remained undisturbed for 2 h at room temperature (about 19° C. to about 22° C.), and then stored at -70° C. until processed. Total RNA was isolated using the Paxgene® blood RNA kit (PreAnalytiX, Germany) according to the manufacturers instructions. The RNA isolated is from all cells in whole blood. Typical yields of total RNA isolated from about 7.5 ml of human whole blood were between 10 μg RNA and 40 μg RNA. RNA quality and purity was analyzed by spectrophotometry using the Nanodrop ND-1000, and RNA integrity was analyzed using the Agilent 2100 Bioanalyzer. […] Sample labeling, hybridization to chips, and image scanning were performed using standard Affymetrix protocols. For each whole blood sample from control individuals and individuals with DMD, total RNA was labeled using the One-Cycle Target Labeling protocol and hybridized to the arrays. […] Double-stranded cDNA synthesis, biotin-labeled cRNA synthesis, and cRNA fragmentation were performed according to the Affymetrix GeneChip Eukaryotic Expression Analysis protocol. The labeled, fragmented cRNA (15 μg) was hybridized at 45° C. overnight. After hybridization, the array was washed and stained. The arrays were scanned with an argon-ion laser at λ=570 nm, with a resolution of 3 μm/pixel (Affymetrix, Inc.). After scanning the array, the raw probe level values for each probe were saved in Affymetrix.cel files. […] Statistical analyses, including t-test analyses, unsupervised hierarchical clustering, and principal component analyses were conducted using Genespring 7.2 software ([…]® 7, Silicon Genetics, Redwood City Calif.). […] Corrections for multiple comparisons used a Benjamini-Hochberg False Discovery Rate (FDR) of 0.05, disclosed in Tang et al., J Cereb Blood Flow Metab 26 (2006) 1089, which is expressly incorporated by reference herein in its entirety. […] Sample processing and array hybridization, probe-level data analysis, and statistical analysis were identical to Example 1.

Structure (SMILES): CC(=O)OCC(=O)[C@@]12N=C(C)O[C@@H]1C[C@H]1[C@@H]3CCC4=CC(=O)C=C[C@]4(C)[C@H]3[C@@H](O)C[C@@]12C [deflazacort]
- p-value (t-test, deflazacort vs prednisone) (deflazacort vs. prednisone, NM_004862, Nucleic Acid No. 2094): 0.0123
- p-value (t-test, deflazacort vs. prednisone) (deflazacort vs. prednisone, NM_005306, Nucleic Acid No. 2036): 0.00696
- p-value (t-test, deflazacort vs. prednisone) (deflazacort vs. prednisone, NM_005345, Nucleic Acid No. 275): 0.0354
- p-value (deflazacort vs. prednisone, NM_005461, Nucleic Acid No. 1310): 0.0317
- p-value (deflazacort vs. prednisone, NM_005502, Nucleic Acid No. 1893): 0.00709
- p-value (t-test, deflazacort vs prednisone) (deflazacort vs. prednisone, NM_005569, Nucleic Acid No. 2093): 0.0261
- p-value (t-test, deflazacort vs prednisone) (deflazacort vs. prednisone, NM_005574, Nucleic Acid No. 2095): 0.0476
- p-value (deflazacort vs. prednisone, NM_005720, Nucleic Acid No. 1912): 0.0485
- p-value (deflazacort vs. prednisone, NM_005890, Nucleic Acid No. 2024): 0.0113
- p-value (t-test, deflazacort vs. prednisone) (deflazacort vs. prednisone, NM_006018, Nucleic Acid No. 2035): 0.000507
- p-value (t-test, deflazacort vs. prednisone) (deflazacort vs. prednisone, NM_006332, Nucleic Acid No. 2055): 0.0414
- p-value (deflazacort vs. prednisone, NM_006854, Nucleic Acid No. 2078): 0.0129
- p-value (t-test, deflazacort vs prednisone) (deflazacort vs. prednisone, NM_006863, Nucleic Acid No. 2092): 0.00957
- p-value (t-test, deflazacort vs. prednisone) (deflazacort vs. prednisone, NM_014179, Nucleic Acid No. 2051): 0.0407
- p-value (t-test, deflazacort vs. prednisone) (deflazacort vs. prednisone, NM_014339, Nucleic Acid No. 2058): 0.0463
- p-value (t-test, deflazacort vs prednisone) (deflazacort vs. prednisone, NM_014656, Nucleic Acid No. 2079): 0.00329
- p-value (deflazacort vs. prednisone, NM_018690, Nucleic Acid No. 1907): 0.00658
- p-value (deflazacort vs. prednisone, NM_019043, Nucleic Acid No. 1040): 0.0288
- p-value (t-test, deflazacort vs. prednisone) (deflazacort vs. prednisone, NM_020179, Nucleic Acid No. 2016): 0.0196
- p-value (t-test, deflazacort vs. prednisone) (deflazacort vs. prednisone, NM_020386, Nucleic Acid No. 2046): 0.0129
- p-value (deflazacort vs. prednisone, NM_152641, Nucleic Acid No. 1576): 0.0457
- p-value (t-test, deflazacort vs. prednisone) (deflazacort vs. prednisone, R38084, Nucleic Acid No. 2026): 0.0133
- p-value (deflazacort vs. prednisone, S72848, Nucleic Acid No. 1686): 0.0226
- p-value (t-test, deflazacort vs prednisone) (deflazacort vs. prednisone, T85248, Nucleic Acid No. 1311): 0.0383
- p-value (deflazacort vs. prednisone, U48734, Nucleic Acid No. 1898): 0.0349
- p-value (t-test, deflazacort vs. prednisone) (deflazacort vs. prednisone, U65590, Nucleic Acid No. 2061): 0.00419
- p-value (deflazacort vs. prednisone, U70064, Nucleic Acid No. 414): 0.0255
- p-value (t-test, deflazacort vs. prednisone) (deflazacort vs. prednisone, U81501, Nucleic Acid No. 2021): 0.0425
- p-value (t-test, deflazacort vs prednisone) (deflazacort vs. prednisone, U93240, Nucleic Acid No. 2086): 0.0114
- p-value (deflazacort vs. prednisone, U97075, Nucleic Acid No. 1949): 0.0264
- p-value (t-test, deflazacort vs. prednisone) (deflazacort vs. prednisone, W27419, Nucleic Acid No. 2052): 0.0306
- p-value (t-test, deflazacort vs. prednisone) (deflazacort vs. prednisone, W93728, Nucleic Acid No. 1590): 0.0103
- p-value (deflazacort vs. prednisone, W95007, Nucleic Acid No. 1896): 0.0111
- p-value (t-test, deflazacort vs. prednisone) (deflazacort vs. prednisone, X51757, Nucleic Acid No. 2050): 0.0352
- p-value (gene M-RIP, Genbank BF515158, Nucleic Acid No. 2128): 0.0466
- p-value (gene MLKL, Genbank AA706818, Nucleic Acid No. 2125): 0.031
- p-value (gene MLL3, Genbank AI057455, Nucleic Acid No. 2126): 0.0474
- p-value (gene MLLT2, Genbank AA703523, Nucleic Acid No. 2127): 0.0149
- p-value (gene MLSTD1, Genbank NM_018099, Nucleic Acid No. 1848): 0.0331
- p-value (gene MS4A7, Genbank AF237916, Nucleic Acid No. 2129): 0.0291
- p-value (gene MTF1, Genbank NM_005955, Nucleic Acid No. 2130): 5.84E−05
- p-value (gene MX2, Genbank NM_002463, Nucleic Acid No. 2131): 0.0283
- p-value (gene MYADM, Genbank BE908995, Nucleic Acid No. 2132): 0.0206
- p-value (gene MYLIP, Genbank AW292746, Nucleic Acid No. 2133): 0.00321
- p-value (gene MYO1F, Genbank BF740152, Nucleic Acid No. 2134): 0.0266
- p-value (gene N4BP1, Genbank AB014515, Nucleic Acid No. 2135): 0.0291
- p-value (gene NCF2, Genbank BC001606, Nucleic Acid No. 2136): 0.0348
- p-value (gene NCOA1, Genbank BF576458, Nucleic Acid No. 2137): 0.00399
- p-value (gene NCOA6, Genbank AF128458, Nucleic Acid No. 926): 0.0221
- p-value (gene NDE1, Genbank BF973292, Nucleic Acid No. 2138): 0.024
- p-value (gene NDE1, Genbank NM_017668, Nucleic Acid No. 2139): 0.0358
- p-value (gene NFIC, Genbank AW134798, Nucleic Acid No. 2140): 0.0141
- p-value (gene NKTR, Genbank AI880383, Nucleic Acid No. 2141): 0.0222
- p-value (gene NOTCH2, Genbank AA291203, Nucleic Acid No. 2142): 0.00739
- p-value (gene NOTCH2, Genbank AF308601, Nucleic Acid No. 1046): 0.0265
- p-value (gene NOTCH2NL, Genbank AW516297, Nucleic Acid No. 2143): 0.0362
- p-value (gene NSF, Genbank AK025172, Nucleic Acid No. 2144): 0.0411
- p-value (gene OLIG1, Genbank AL355743, Nucleic Acid No. 1399): 0.00583
- p-value (gene OSTF1, Genbank NM_012383, Nucleic Acid No. 2145): 0.0203
- p-value (gene PACSIN2, Genbank NM_007229, Nucleic Acid No. 2146): 0.0409
- p-value (gene PAPD4, Genbank AW104325, Nucleic Acid No. 2147): 0.00878
- p-value (gene PARP9, Genbank AI738416, Nucleic Acid No. 2148): 0.0394
- p-value (gene PARVG, Genbank AL355092, Nucleic Acid No. 2149): 0.0293
- p-value (gene PB1, Genbank H79538, Nucleic Acid No. 2150): 0.0371
- p-value (gene PBX2, Genbank BE397715, Nucleic Acid No. 2151): 0.0221
- p-value (gene PCBP2, Genbank AW025150, Nucleic Acid No. 2152): 0.0394
- p-value (gene PDLIM5, Genbank NM_006457, Nucleic Acid No. 2153): 0.0238
